Laboratory results from PubChem BioAssay (NCI).
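The compound was tested at five concentrations on cells cultured in 96-well plates, with a 48-hour exposure period. Definition used: TGI = concentration required for complete inhibition of growth.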

What was measured:
Assay in all cases: NCI-60 cell line screen, 48 h
OVCAR-8 ovarian = system: OVCAR-8 ovarian
UO-31 renal = system: UO-31 renal
HS 578T breast = system: HS 578T breast
LOX IMVI melanoma = system: LOX IMVI melanoma
786-0 renal = system: 786-0 renal
KM12 colon = system: KM12 colon
SK-MEL-2 melanoma = system: SK-MEL-2 melanoma
OVCAR-5 ovarian = system: OVCAR-5 ovarian
RXF 393 renal = system: RXF 393 renal
NCI-H23 lung = system: NCI-H23 lung
SW-620 colon = system: SW-620 colon
SK-MEL-5 melanoma = system: SK-MEL-5 melanoma
MDA-MB-435 = system: MDA-MB-435
U251 CNS = system: U251 CNS
DU-145 prostate = system: DU-145 prostate
SNB-19 CNS = system: SNB-19 CNS
T-47D breast = system: T-47D breast
HL-60(TB) leukemia = system: HL-60(TB) leukemia
PC-3 prostate = system: PC-3 prostate
ACHN renal = system: ACHN renal
MOLT-4 leukemia = system: MOLT-4 leukemia
SN12C renal = system: SN12C renal
CCRF-CEM leukemia = system: CCRF-CEM leukemia
CAKI-1 renal = system: CAKI-1 renal
HOP-92 NSCLC = system: HOP-92 NSCLC
BT-549 breast = system: BT-549 breast
MDA-MB-231 breast = system: MDA-MB-231 breast
M14 melanoma = system: M14 melanoma
OVCAR-3 ovarian = system: OVCAR-3 ovarian
HCT-116 colon = system: HCT-116 colon
SNB-75 CNS = system: SNB-75 CNS
OVCAR-4 ovarian = system: OVCAR-4 ovarian
COLO 205 colon = system: COLO 205 colon
HCT-15 colon = system: HCT-15 colon
SF-268 CNS = system: SF-268 CNS
SR leukemia = system: SR leukemia
NCI-H460 lung = system: NCI-H460 lung
A498 renal = system: A498 renal
TK-10 renal = system: TK-10 renal
K-562 leukemia = system: K-562 leukemia
SF-539 CNS = system: SF-539 CNS
SF-295 CNS = system: SF-295 CNS
MCF7 breast = system: MCF7 breast
UACC-257 melanoma = system: UACC-257 melanoma
MDA-N = system: MDA-N
HCC-2998 colon = system: HCC-2998 colon
NCI-H522 lung = system: NCI-H522 lung
NCI/ADR-RES ovarian = system: NCI/ADR-RES ovarian
HOP-62 NSCLC = system: HOP-62 NSCLC
UACC-62 melanoma = system: UACC-62 melanoma
SK-OV-3 ovarian = system: SK-OV-3 ovarian

Measured: TGI

CC1OC(O[C@H]2CC[C@]3(C)[C@H]4CC=C5[C@@H]6[C@@H](C)[C@H](C)CC[C@]6(C(=O)OC6OC(CO)C(O)C(O)C6O)CC[C@@]5(C(=O)O)[C@]4(C)CC[C@H]3C2(C)C)C(O)C(O)C1O (stereo partly specified)
> 100 µM: all assays above
